≈ marks a conversion by molar mass, not a printed value.
Target: α-Glucosidase from Saccharomyces cerevisiae (Saccharomyces cerevisiae, UniProt P53341)
Experiment: α-Glucosidase inhibiting activity (α-GIA), p-NPG substrate
Assay type: biochemical
Conditions: 0.5 U/ml enzyme, pH 6.8, 37°C, 5 mM p-NPG

α-Glucosidase from Saccharomyces cerevisiae, sequence (P53341 whole entry): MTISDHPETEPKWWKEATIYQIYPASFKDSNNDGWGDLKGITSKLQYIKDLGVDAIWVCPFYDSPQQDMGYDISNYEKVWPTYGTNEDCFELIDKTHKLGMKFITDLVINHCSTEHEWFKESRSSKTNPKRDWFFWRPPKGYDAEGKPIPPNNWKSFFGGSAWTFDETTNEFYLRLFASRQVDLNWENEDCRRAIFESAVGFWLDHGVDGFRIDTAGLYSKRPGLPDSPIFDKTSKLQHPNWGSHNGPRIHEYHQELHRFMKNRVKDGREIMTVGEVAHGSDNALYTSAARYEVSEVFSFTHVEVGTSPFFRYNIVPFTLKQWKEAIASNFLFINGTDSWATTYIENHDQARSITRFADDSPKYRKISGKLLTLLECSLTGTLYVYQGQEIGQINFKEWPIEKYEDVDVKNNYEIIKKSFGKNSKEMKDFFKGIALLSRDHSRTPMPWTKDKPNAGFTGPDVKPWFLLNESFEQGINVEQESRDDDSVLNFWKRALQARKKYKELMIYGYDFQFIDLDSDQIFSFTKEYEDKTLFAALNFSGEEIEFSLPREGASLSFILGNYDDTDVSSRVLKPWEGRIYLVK

IC50 α-GIA: 374.23 µg/mL (≈ 1290 µM)
Structure (SMILES): Oc1cc(O)c2c(c1)O[C@H](c1ccc(O)c(O)c1)[C@@H](O)C2 [(+)-Catechin]
